Each compound was assayed against human GPR40 (Homo sapiens (Human), UniProt O14842) (assay: Inositol Phosphate Turnover (IP1) Assay). Details: HEK cells stably expressing human GPR40.
human GPR40, sequence (O14842 whole entry): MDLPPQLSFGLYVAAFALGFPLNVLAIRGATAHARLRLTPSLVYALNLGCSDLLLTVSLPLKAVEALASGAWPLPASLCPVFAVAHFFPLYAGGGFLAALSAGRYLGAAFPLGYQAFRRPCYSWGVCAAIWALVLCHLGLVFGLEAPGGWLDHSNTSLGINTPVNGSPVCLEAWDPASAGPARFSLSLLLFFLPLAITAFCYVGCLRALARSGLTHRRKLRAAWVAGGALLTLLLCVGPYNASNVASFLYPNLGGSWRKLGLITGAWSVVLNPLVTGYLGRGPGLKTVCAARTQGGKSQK
Assay type: cell-based
Description: Human and mouse GPR40 stable cell-lines were generated in CHO cells stably expressing NFAT BLA (Beta-lactamase). A human GPR40 stable cell-line was generated in HEK cells stably expressing the acquorin expressing reporter. The expression plasmids were transfected using lipofectamine (Life Technologies) following manufacturer's instructions. Stable cell-lines were generated following drug selection.
The assay is performed in 384-well format. HEK cells stably expressing human GPR40 are plated at 15,000 cells per well in growth medium (DMEM/10% fetal calf serum). Cell plates are then incubated 16 hours at 37 degrees in a 5% CO2 incubator.
Measurement of Inositol Phosphate Turnover (IP1) is performed using the CisBio IP-One kit (Part number 62IPAPEB). After the 16 hour incubation, the cells are washed with HEPES buffer and 10 ul of stimulation buffer (prepared as described in the kit) is added to each well. In a separate plate, compounds are diluted in DMSO (400-fold over the final concentration in the assay well) and 25 nl is acoustically transferred to the appropriate well in the assay cell plate. The plates are then incubated for 60 minutes at 37 degrees. 10 ul of detection buffer (also prepared as described in the IP-One kit) is added to each well and the plates are incubated for 60 minutes in the dark. The plates are then read in a Perkin Elmer EnVision or equivalent reader able to measure FRET. Fluorescent ratio of emission at 665 and 620 nm is then converted to IP1 concentration by back calculating from an IP1 standard curve prepared at the time of the assay.
For `COc1cc(-c2ccc(C3CCCc4ccc([C@H](C5CC5)[C@H](C)C(=O)O)cc4O3)cc2)c(F)cn1` (mixture of isomers) [Example 5, (2S,3R)-3-cyclopropyl-3-((RS)-2-(4-(5-fluoro-2-methoxypyridin-4-yl)phenyl)-2,3,4,5-tetrahydrobenzo[b]oxepin-8-yl)-2-methylpropanoic acid], the EC50 was 3.1 nM.
With `COc1cc(-c2ccc(C3CCCc4ccc([C@H](C5CC5)[C@H](C)C(=O)O)cc4O3)nc2)c(F)cn1` (mixture of isomers) [Example 7, (2S,3R)-3-cyclopropyl-3-((RS)-2-(5′-fluoro-2′-methoxy-[3,4′-bipyridin]-6-yl)-2,3,4,5-tetrahydrobenzo[b]oxepin-8-yl)-2-methylpropanoic acid] the EC50 was 3 nM.
`COc1cc(-c2ccc(C3CCCc4ccc([C@H](C5CC5)[C@H](C)C(=O)O)cc4O3)c(F)c2)ccn1` (single isomer, unassigned) [Example 1, (2S,3R)-3-cyclopropyl-3-((R or S)-2-(2-fluoro-4-(2-methoxypyridin-4-yl)phenyl)-2,3,4,5-tetrahydrobenzo[b]oxepin-8-yl)-2-methylpropanoic acid] gave an EC50 of 3.6 nM.
With `COc1cc(-c2ccc(C3CCCc4ccc([C@H](C5CC5)[C@H](C)C(=O)O)cc4O3)c(F)c2)ccn1` (single isomer, unassigned) [Example 2, (2S,3R)-3-cyclopropyl-3-((R or S)-2-(2-fluoro-4-(2-methoxypyridin-4-yl)phenyl)-2,3,4,5-tetrahydrobenzo[b]oxepin-8-yl)-2-methylpropanoic acid] the EC50 was 14 nM.
With `C[C@H](C(=O)O)[C@H](c1ccc2c(c1)OC(C1CN(Cc3cc(C(F)(F)F)ccc3C(F)(F)F)C1)CCC2)C1CC1` (single isomer, unassigned) [Example 3, (2S, 3R)-3-((R or S)-2-(1-(2,5-bis (trifluoromethyl)benzyl)azetidin-3-yl)-2,3,4,5-tetrahydrobenzo[b]oxepin-8-yl)-3-cyclopropyl-2-methylpropanoic acid] the EC50 was 13 nM.
With `C[C@H](C(=O)O)[C@H](c1ccc2c(c1)OC(C1CN(Cc3cc(C(F)(F)F)ccc3C(F)(F)F)C1)CCC2)C1CC1` (single isomer, unassigned) [Example 4, (2S,3R)-3-((R or S)-2-(1-(2,5-bis(trifluoromethyl)-benzyl)azetidin-3-yl)-2,3,4,5-tetrahydrobenzo[b]-oxepin-8-yl)-3-cyclopropyl-2-methylpropanoic acid] the EC50 was 27 nM.
`COc1cc(-c2ccc(C3CCCc4ccc([C@H](C5CC5)[C@H](C)C(=O)O)cc4O3)cc2)c(F)cn1` (single isomer, unassigned) [Example 6, (2S,3R)-3-cyclopropyl-3-((R or S)-2-(4-(5-fluoro-2-methoxypyridin-4-yl)phenyl)-2,3,4,5-tetrahydrobenzo[b]oxepin-8-yl)-2-methylpropanoic acid] showed an EC50 of 5.2 nM.
In the case of `COc1cc(-c2ccc(C3CCCc4ccc([C@H](C5CC5)[C@H](C)C(=O)O)cc4O3)nc2)c(F)cn1` (single isomer, unassigned) [Example 8, (2S,3R)-3-cyclopropyl-3-((R or S)-2-(5′-fluoro-2′-methoxy-[3,4′-bipyridin]-6-yl)-2,3,4,5-tetrahydrobenzo[b]oxepin-8-yl)-2-methylpropanoic acid], the EC50 is reported as 29 nM.
`COc1ccc(F)c(-c2ccc(C3CCCc4ccc([C@H](C5CCC5)[C@H](C)C(=O)O)cc4O3)cc2)c1` (single isomer, unassigned) [Example 10, Sodium (2S,3R)-3-cyclobutyl-3-((R or S)-2-(2′-fluoro-5′-methoxy-[1,1′-biphenyl]-4-yl)-2,3,4,5-tetrahydrobenzo[b]oxepin-8-yl)-2-methylpropanoate] was tested, and the EC50 was 4.6 nM.
For `COc1ccc(F)c(-c2ccc(C3CCCc4ccc([C@H](C5CCC5)[C@H](C)C(=O)O)cc4O3)cc2)c1` (single isomer, unassigned) [Example 11, Sodium (2S,3R)-3-cyclobutyl-3-((R or S)-2-(2′-fluoro-5′-methoxy-[1,1′-biphenyl]-4-yl)-2,3,4,5-tetrahydrobenzo[b]oxepin-8-yl)-2-methylpropanoate], the EC50 was 6 nM.
`COc1cc(-c2cnc(C3CCCc4ccc([C@H](C5CC5)[C@H](C)C(=O)O)cc4O3)cn2)c(F)cn1` (single isomer, unassigned) [Example 12] was tested, and the EC50 was 116 nM.
`COc1cc(-c2cnc(C3CCCc4ccc([C@H](C5CC5)[C@H](C)C(=O)O)cc4O3)cn2)c(F)cn1` (single isomer, unassigned) [Example 13] gave an EC50 of 684 nM.

Source: patent US10131651B2, “[7,6]-fused bicyclic antidiabetic compounds” (Merck Sharp & Dohme Corp., priority 2014, dated 2018)
